Format in all cases: cell-based, bovine
The subject of test [1] is active beta-catenin (ABC). Briefly: Western blot of active beta-catenin (ABC) expression in corneal endothelial cells. As to the method: With reference to FIG. 5, FIG. 5 was the Western blot analysis showing the expression level of active beta-catenin (ABC) in corneal endothelial cells treated with different concentrations of Marimastat or ADAM10 (ADAM metallopeptidase domain 10) specific inhibitor GI254023X. In group 1-3, the corneal endothelial cells were incubated in the SHEM added with 100 nM, 1 uM or 10 uM of GI254023X, respectively. In group 4-6, cells were incubated in the SHEM added with 100 nM, 1 uM or 10 uM of Marimastat, respectively. In group 1-3, there was no reduction in the expression level of ABC in the presence of ADAM10 specific inhibitor, GI254023X. In group 4, ABC expression level was high despite 100 nM of Marimastat.
(In western blotting, separated proteins are transferred to a membrane and probed.)

Test [2] has as its system corneal endothelial cells. Briefly: Phenotype (cell shape) of ex vivo cultured corneal endothelial cells, immunofluorescence staining against active beta-catenin.
In test [3] the test system is corneal endothelial cells. Nature of the test: Growth / proliferation of ex vivo cultured corneal endothelial cells. The source says: Y-27632 is a known growth stimulator for corneal endothelial cells that is able to increase the ex vivo cell proliferation.

The structures appear in SMILES notation.

Take `CNC(=O)[C@@H](NC(=O)[C@H](CCCc1ccccc1)[C@H](C)N(O)C=O)C(C)(C)C` [GI254023X]: the “expression level of active beta-catenin (ABC)” value in test [1] (group 1-3: 100 nM, 1 uM or 10 uM in SHEM) is recorded as “no reduction”.

`CNC(=O)[C@@H](NC(=O)[C@H](CC(C)C)[C@H](O)C(=O)NO)C(C)(C)C` [Marimastat]: the “cell morphology of cultured corneal endothelial cells” value in test [2] (group 2 or 4: SHEM with 10 uM MMPI (without or with 10 uM Y-27632) for 9 days) was “maintained hexagonal morphology”. The “expression level of active beta-catenin (ABC)” value in test [1] (group 4: 100 nM in SHEM) is “high”; in test [1] (more than 1 uM in SHEM (groups 5-6: 1 uM, 10 uM)), “significantly reduced”. Also, in test [3] (groups 2, 4 and 6: 10 uM MMPI added in the SHEM), the “cell growth of corneal endothelial cells” value was “not obviously inhibited or reduced”.

For `C[C@@H](N)[C@H]1CC[C@H](C(=O)Nc2ccncc2)CC1` [Y-27632], the “cell shape of cultured corneal endothelial cells” value in test [2] (group 3 or 5: SHEM with 10 uM Y-27632 (9 days, or first 3 days only)) was “elongated and fibroblast-like”. In test [3] (group 3 or 5: SHEM with 10 uM Y-27632), the “proliferation of corneal endothelial cells” value is listed as “enhanced proliferation”.
